Experimental data as given in ChEMBL document CHEMBL3774316, “Design, synthesis and anti-HIV-1 evaluation of hydrazide-based peptidomimetics as selective gelatinase inhibitors” (Bioorg Med Chem, 2016).

Target: T1, Aminopeptidase N (Sus scrofa, UniProt P15145)
T1 sequence (P15145 whole entry): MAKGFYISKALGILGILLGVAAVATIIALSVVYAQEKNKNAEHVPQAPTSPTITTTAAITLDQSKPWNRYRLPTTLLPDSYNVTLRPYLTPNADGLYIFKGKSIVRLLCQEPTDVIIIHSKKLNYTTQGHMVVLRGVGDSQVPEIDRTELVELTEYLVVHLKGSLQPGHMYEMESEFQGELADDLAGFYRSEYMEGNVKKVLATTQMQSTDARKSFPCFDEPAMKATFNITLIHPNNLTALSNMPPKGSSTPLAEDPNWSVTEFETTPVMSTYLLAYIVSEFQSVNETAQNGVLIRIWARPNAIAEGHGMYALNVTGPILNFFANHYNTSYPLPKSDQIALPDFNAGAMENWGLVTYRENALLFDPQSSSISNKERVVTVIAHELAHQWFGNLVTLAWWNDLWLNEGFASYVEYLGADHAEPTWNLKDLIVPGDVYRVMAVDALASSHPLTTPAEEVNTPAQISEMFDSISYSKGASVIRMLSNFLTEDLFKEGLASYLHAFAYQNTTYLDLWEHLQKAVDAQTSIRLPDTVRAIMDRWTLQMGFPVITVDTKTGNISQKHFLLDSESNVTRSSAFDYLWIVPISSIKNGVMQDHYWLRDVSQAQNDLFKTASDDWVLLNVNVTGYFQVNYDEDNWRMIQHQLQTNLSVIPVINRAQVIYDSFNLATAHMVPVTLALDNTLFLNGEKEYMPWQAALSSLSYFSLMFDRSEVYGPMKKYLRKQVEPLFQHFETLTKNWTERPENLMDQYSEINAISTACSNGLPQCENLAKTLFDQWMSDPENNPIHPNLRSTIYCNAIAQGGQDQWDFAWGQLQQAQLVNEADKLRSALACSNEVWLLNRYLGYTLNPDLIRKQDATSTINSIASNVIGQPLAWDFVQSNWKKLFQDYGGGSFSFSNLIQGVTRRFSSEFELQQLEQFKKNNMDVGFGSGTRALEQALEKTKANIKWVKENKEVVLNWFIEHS
Test: Inhibition of porcine microsomal aminopeptidase N preincubated for 30 mins using L-Leu-p-nitroanilide as substrate by UV-VIS spectrophotometer
Settings: not given

Row | IC50 [µM] | SMILES
1 | > 1000 | Cc1ccc(S(=O)(=O)N2CC3(C[C@H]2C(=O)N/N=C/c2ccc(N(C)C)cc2)SCCS3)cc1
2 | 223 | Cc1nc2ccccc2n(CC(=O)N/N=C/Cc2ccccc2)c1=O
3 | 389 | C/C(=N\NC(=O)Cn1c(=O)c(C)nc2ccccc21)c1ccc([N+](=O)[O-])cc1
4 | 328 | CC(=O)NNC(=O)Cn1c(=O)c(C)nc2ccccc21
5 | 644 | Cc1nc2ccccc2n(CC(=O)N/N=C/c2ccc([N+](=O)[O-])cc2)c1=O
6 | 103 | Cc1nc2ccccc2n(CC(=O)N/N=C/c2ccco2)c1=O
7 | 125 | C/C(=N\NC(=O)Cn1c(=O)c(C)nc2ccccc21)c1ccc(Cl)cc1
8 | 99.9 | C/C(=N\NC(=O)Cn1c(=O)c(C)nc2ccccc21)c1ccccc1
9 | 307 | Cc1ccc(/C=N/NC(=O)Cn2c(=O)c(C)nc3ccccc32)cc1
10 | 341 | Cc1nc2ccccc2n(CC(=O)N/N=C/c2ccccc2)c1=O
11 | > 1000 | COc1ccccc1/C=N/NC(=O)[C@@H]1CC2(CN1S(=O)(=O)c1ccc(C)cc1)SCCS2
12 | 257 | Cc1nc2ccccc2n(CC(=O)NN)c1=O
13 | 333 | Cc1nc2ccccc2n(CC(=O)NNC(=O)Cc2ccccc2)c1=O
14 | 80.9 | COc1cccc(/C=N/NC(=O)Cn2c(=O)c(C)nc3ccccc32)c1O
15 | 299 | Cc1nc2ccccc2n(CC(=O)NNC(=O)c2c(Cl)cccc2Cl)c1=O
16 | > 1000 | Cc1ccc(S(=O)(=O)N2CC3(C[C@H]2C(=O)N/N=C/c2ccccc2Cl)SCCS3)cc1
17 | 331 | Cc1nc2ccccc2n(CC(=O)N/N=C/c2ccc(N(C)C)cc2)c1=O

System: C8166
Test: Cytotoxicity against human C8166 cells after 72 hrs by MTT assay
Assay type: functional
Settings: C8166, 72 h

Row | SMILES | CC50 [µM]
18 | Cc1ccc(S(=O)(=O)N2CC3(C[C@H]2C(=O)N/N=C/c2ccc(N(C)C)cc2)SCCS3)cc1 | > 397
19 | Cc1nc2ccccc2n(CC(=O)N/N=C/Cc2ccccc2)c1=O | > 599
20 | C/C(=N\NC(=O)Cn1c(=O)c(C)nc2ccccc21)c1ccc([N+](=O)[O-])cc1 | > 528
21 | CC(=O)NNC(=O)Cn1c(=O)c(C)nc2ccccc21 | > 730
22 | Cc1nc2ccccc2n(CC(=O)N/N=C/c2ccc([N+](=O)[O-])cc2)c1=O | > 548
23 | Cc1nc2ccccc2n(CC(=O)N/N=C/c2ccco2)c1=O | > 645
24 | C/C(=N\NC(=O)Cn1c(=O)c(C)nc2ccccc21)c1ccc(Cl)cc1 | > 543
25 | C/C(=N\NC(=O)Cn1c(=O)c(C)nc2ccccc21)c1ccccc1 | 491
26 | Cc1ccc(/C=N/NC(=O)Cn2c(=O)c(C)nc3ccccc32)cc1 | 262
27 | Cc1nc2ccccc2n(CC(=O)N/N=C/c2ccccc2)c1=O | > 625
28 | COc1ccccc1/C=N/NC(=O)[C@@H]1CC2(CN1S(=O)(=O)c1ccc(C)cc1)SCCS2 | 388
29 | Cc1nc2ccccc2n(CC(=O)NN)c1=O | > 862
30 | Cc1nc2ccccc2n(CC(=O)NNC(=O)Cc2ccccc2)c1=O | > 571
31 | COc1cccc(/C=N/NC(=O)Cn2c(=O)c(C)nc3ccccc32)c1O | 115
32 | Cc1nc2ccccc2n(CC(=O)NNC(=O)c2c(Cl)cccc2Cl)c1=O | 153
33 | Cc1ccc(S(=O)(=O)N2CC3(C[C@H]2C(=O)N/N=C/c2ccccc2Cl)SCCS3)cc1 | > 404
34 | Cc1nc2ccccc2n(CC(=O)N/N=C/c2ccc(N(C)C)cc2)c1=O | 355

System: Human immunodeficiency virus 1
Test: Antiviral activity against HIV1 3B infected in human C8166 cells assessed as cytopathic effect by counting the number of syncytia by microscopy
Assay type: functional, organism-based
Settings: Human immunodeficiency virus 1, 3B

Row | EC50 [µM] | SMILES
35 | 37.7 | Cc1ccc(S(=O)(=O)N2CC3(C[C@H]2C(=O)N/N=C/c2ccc(N(C)C)cc2)SCCS3)cc1
36 | 82.8 | Cc1nc2ccccc2n(CC(=O)N/N=C/Cc2ccccc2)c1=O
37 | 145 | C/C(=N\NC(=O)Cn1c(=O)c(C)nc2ccccc21)c1ccc([N+](=O)[O-])cc1
38 | > 730 | CC(=O)NNC(=O)Cn1c(=O)c(C)nc2ccccc21
39 | 42.1 | Cc1nc2ccccc2n(CC(=O)N/N=C/c2ccc([N+](=O)[O-])cc2)c1=O
40 | 301 | Cc1nc2ccccc2n(CC(=O)N/N=C/c2ccco2)c1=O
41 | > 543 | C/C(=N\NC(=O)Cn1c(=O)c(C)nc2ccccc21)c1ccc(Cl)cc1
42 | 54.9 | C/C(=N\NC(=O)Cn1c(=O)c(C)nc2ccccc21)c1ccccc1
43 | 51.3 | Cc1ccc(/C=N/NC(=O)Cn2c(=O)c(C)nc3ccccc32)cc1
44 | 121 | Cc1nc2ccccc2n(CC(=O)N/N=C/c2ccccc2)c1=O
45 | 51.1 | COc1ccccc1/C=N/NC(=O)[C@@H]1CC2(CN1S(=O)(=O)c1ccc(C)cc1)SCCS2
46 | > 862 | Cc1nc2ccccc2n(CC(=O)NN)c1=O
47 | 296 | Cc1nc2ccccc2n(CC(=O)NNC(=O)Cc2ccccc2)c1=O
48 | 2.79 | COc1cccc(/C=N/NC(=O)Cn2c(=O)c(C)nc3ccccc32)c1O
49 | 51.6 | Cc1nc2ccccc2n(CC(=O)NNC(=O)c2c(Cl)cccc2Cl)c1=O
50 | 30.3 | Cc1ccc(S(=O)(=O)N2CC3(C[C@H]2C(=O)N/N=C/c2ccccc2Cl)SCCS3)cc1
51 | 159 | Cc1nc2ccccc2n(CC(=O)N/N=C/c2ccc(N(C)C)cc2)c1=O

System: Human immunodeficiency virus 1
Test: Antiviral activity against HIV1 A17 infected in human C8166 cells assessed as reduction in p24 antigen level incubated for 4 hrs followed by cell plating for 72 hrs by ELISA method
Assay type: functional, organism-based
Settings: Human immunodeficiency virus 1, A17, C8166

Row | EC50 [µM] | SMILES
52 | 74 | Cc1ccc(S(=O)(=O)N2CC3(C[C@H]2C(=O)N/N=C/c2ccc(N(C)C)cc2)SCCS3)cc1
53 | 11.4 | COc1ccccc1/C=N/NC(=O)[C@@H]1CC2(CN1S(=O)(=O)c1ccc(C)cc1)SCCS2
54 | 2.46 | COc1cccc(/C=N/NC(=O)Cn2c(=O)c(C)nc3ccccc32)c1O
55 | 18.2 | Cc1ccc(S(=O)(=O)N2CC3(C[C@H]2C(=O)N/N=C/c2ccccc2Cl)SCCS3)cc1

System: Human immunodeficiency virus 1
Test: Antiviral activity against HIV1 74V infected in human C8166 cells assessed as reduction in p24 antigen level incubated for 4 hrs followed by cell plating for 72 hrs by ELISA method
Assay type: functional, organism-based
Settings: Human immunodeficiency virus 1, 74V

Row | EC50 [µM] | SMILES
56 | 56.3 | Cc1ccc(S(=O)(=O)N2CC3(C[C@H]2C(=O)N/N=C/c2ccc(N(C)C)cc2)SCCS3)cc1
57 | 30 | COc1ccccc1/C=N/NC(=O)[C@@H]1CC2(CN1S(=O)(=O)c1ccc(C)cc1)SCCS2
58 | 3.48 | COc1cccc(/C=N/NC(=O)Cn2c(=O)c(C)nc3ccccc32)c1O
59 | 93.6 | Cc1ccc(S(=O)(=O)N2CC3(C[C@H]2C(=O)N/N=C/c2ccccc2Cl)SCCS3)cc1

System: not listed separately
Test: Therapeutic index, ratio of CC50 for human C8166 cells to EC50 for HIV1 3B infected in human C8166 cells
Assay type: cell-based
Settings: read-out: Ratio CC50/EC50

Row | SMILES | selectivity ratio
60 | Cc1ccc(S(=O)(=O)N2CC3(C[C@H]2C(=O)N/N=C/c2ccc(N(C)C)cc2)SCCS3)cc1 | > 10.5
61 | Cc1nc2ccccc2n(CC(=O)N/N=C/Cc2ccccc2)c1=O | > 7.2
62 | C/C(=N\NC(=O)Cn1c(=O)c(C)nc2ccccc21)c1ccc([N+](=O)[O-])cc1 | > 3.6
63 | Cc1nc2ccccc2n(CC(=O)N/N=C/c2ccc([N+](=O)[O-])cc2)c1=O | > 7.7
64 | Cc1nc2ccccc2n(CC(=O)N/N=C/c2ccco2)c1=O | > 2.1
65 | C/C(=N\NC(=O)Cn1c(=O)c(C)nc2ccccc21)c1ccccc1 | 8.9
66 | Cc1ccc(/C=N/NC(=O)Cn2c(=O)c(C)nc3ccccc32)cc1 | 5.1
67 | Cc1nc2ccccc2n(CC(=O)N/N=C/c2ccccc2)c1=O | > 5.2
68 | COc1ccccc1/C=N/NC(=O)[C@@H]1CC2(CN1S(=O)(=O)c1ccc(C)cc1)SCCS2 | 7.6
69 | Cc1nc2ccccc2n(CC(=O)NNC(=O)Cc2ccccc2)c1=O | > 1.9
70 | COc1cccc(/C=N/NC(=O)Cn2c(=O)c(C)nc3ccccc32)c1O | 41.3
71 | Cc1nc2ccccc2n(CC(=O)NNC(=O)c2c(Cl)cccc2Cl)c1=O | 2.97
72 | Cc1ccc(S(=O)(=O)N2CC3(C[C@H]2C(=O)N/N=C/c2ccccc2Cl)SCCS3)cc1 | > 13.3
73 | Cc1nc2ccccc2n(CC(=O)N/N=C/c2ccc(N(C)C)cc2)c1=O | 2.2

System: Human immunodeficiency virus 1
Test: Antiviral activity against HIV1 3B infected in human C8166 cells assessed as reduction in p24 antigen level incubated for 2 hrs followed by cell plating for 72 hrs by ELISA method
Assay type: functional, organism-based
Settings: Human immunodeficiency virus 1, 3B

Row | EC50 [µM] | SMILES
74 | 75.6 | Cc1ccc(S(=O)(=O)N2CC3(C[C@H]2C(=O)N/N=C/c2ccc(N(C)C)cc2)SCCS3)cc1
75 | 69.6 | COc1ccccc1/C=N/NC(=O)[C@@H]1CC2(CN1S(=O)(=O)c1ccc(C)cc1)SCCS2
76 | 6.05 | COc1cccc(/C=N/NC(=O)Cn2c(=O)c(C)nc3ccccc32)c1O
77 | 149 | Cc1ccc(S(=O)(=O)N2CC3(C[C@H]2C(=O)N/N=C/c2ccccc2Cl)SCCS3)cc1

Target: 72 kDa type IV collagenase (Homo sapiens, UniProt P08253)
Test: Inhibition of gelatinase A (unknown origin) after 30 mins using succinylated gelatin as substrate
Settings: not given

72 kDa type IV collagenase, sequence (P08253 whole entry): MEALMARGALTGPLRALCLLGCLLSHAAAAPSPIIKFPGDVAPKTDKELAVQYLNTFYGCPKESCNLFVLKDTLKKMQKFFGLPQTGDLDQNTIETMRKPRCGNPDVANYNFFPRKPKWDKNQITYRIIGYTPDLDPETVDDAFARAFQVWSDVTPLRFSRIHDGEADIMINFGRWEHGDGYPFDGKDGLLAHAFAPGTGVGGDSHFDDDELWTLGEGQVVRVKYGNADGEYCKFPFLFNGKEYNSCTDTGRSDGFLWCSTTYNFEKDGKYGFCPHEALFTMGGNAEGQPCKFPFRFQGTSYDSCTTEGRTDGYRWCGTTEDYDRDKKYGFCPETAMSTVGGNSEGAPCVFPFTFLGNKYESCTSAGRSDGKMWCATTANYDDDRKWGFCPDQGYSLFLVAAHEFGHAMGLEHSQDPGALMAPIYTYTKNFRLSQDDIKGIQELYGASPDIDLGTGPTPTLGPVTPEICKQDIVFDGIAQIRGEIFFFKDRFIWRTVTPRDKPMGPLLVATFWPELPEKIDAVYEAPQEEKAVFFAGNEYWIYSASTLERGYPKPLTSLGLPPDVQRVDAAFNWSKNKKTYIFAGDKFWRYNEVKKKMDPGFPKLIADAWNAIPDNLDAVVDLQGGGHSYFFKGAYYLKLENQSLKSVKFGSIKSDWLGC

Row | IC50 [µM] | SMILES
78 | 5.52 | Cc1ccc(S(=O)(=O)N2CC3(C[C@H]2C(=O)N/N=C/c2ccc(N(C)C)cc2)SCCS3)cc1
79 | 36 | Cc1nc2ccccc2n(CC(=O)N/N=C/Cc2ccccc2)c1=O
80 | 90.8 | C/C(=N\NC(=O)Cn1c(=O)c(C)nc2ccccc21)c1ccc([N+](=O)[O-])cc1
81 | > 500 | CC(=O)NNC(=O)Cn1c(=O)c(C)nc2ccccc21
82 | 246 | Cc1nc2ccccc2n(CC(=O)N/N=C/c2ccc([N+](=O)[O-])cc2)c1=O
83 | 17.2 | Cc1nc2ccccc2n(CC(=O)N/N=C/c2ccco2)c1=O
84 | 13.2 | C/C(=N\NC(=O)Cn1c(=O)c(C)nc2ccccc21)c1ccc(Cl)cc1
85 | 9.39 | C/C(=N\NC(=O)Cn1c(=O)c(C)nc2ccccc21)c1ccccc1
86 | 38.6 | Cc1ccc(/C=N/NC(=O)Cn2c(=O)c(C)nc3ccccc32)cc1
87 | 67 | Cc1nc2ccccc2n(CC(=O)N/N=C/c2ccccc2)c1=O
88 | 28.5 | COc1ccccc1/C=N/NC(=O)[C@@H]1CC2(CN1S(=O)(=O)c1ccc(C)cc1)SCCS2
89 | 98 | Cc1nc2ccccc2n(CC(=O)NN)c1=O
90 | 159 | Cc1nc2ccccc2n(CC(=O)NNC(=O)Cc2ccccc2)c1=O
91 | 7.17 | COc1cccc(/C=N/NC(=O)Cn2c(=O)c(C)nc3ccccc32)c1O
92 | 58.2 | Cc1nc2ccccc2n(CC(=O)NNC(=O)c2c(Cl)cccc2Cl)c1=O
93 | 0.64 | Cc1ccc(S(=O)(=O)N2CC3(C[C@H]2C(=O)N/N=C/c2ccccc2Cl)SCCS3)cc1
94 | 64.3 | Cc1nc2ccccc2n(CC(=O)N/N=C/c2ccc(N(C)C)cc2)c1=O
